Laboratory results reported in patent US8921421B2, “Inhibitors of dimethylarginine dimethylaminohydrolase” (Christian-Albrechts-Universitaet Zu Kiel, priority 2008, dated 2014).

Tests used:
Assay type in all cases: biochemical
hDDAH-1 [1] = molecular target: T1, hDDAH-1 (Homo sapiens (Human), UniProt O94760); assay: In vitro hDDAH-1 assay (HPLC), inhibition at 1 mM inhibitor; details: inhibitor 1 mM, NMMA 200 μM, 2 μg hDDAH-1, 30 min 37° C.; MV±SD of at least four incubations
Description: This assay was used to determine the inhibiting effect of the inhibitors in a concentration of 1 mM. A standard incubation mixture consisted of 75 μl of 50 mM potassium phosphate buffer pH 7.4 and contained NMMA in a concentration of 200 μM. The inhibitors were used in final concentrations of 1 mM. By adding 2 μg of hDDAH-1, the reaction was started and the samples were incubated for 30 minutes at 37° C. in, a shaking water bath. The reaction was then stopped by adding 75 μl of acetonitrile, the samples were shaken for 5′ minutes and centrifuged (12,000 g, 5 min). The supernatant was added to the HPLC.
In addition, three incubations without added inhibitor were carried out in each case and worked up as specified above. The L-citrulline concentration detected in the samples was set at 100% and the amount of L-citrulline formed in the samples with added inhibitor was referred to this value.
For analysing the samples of the in vitro hDDAH-1 assay (HPLC), o-PA pre-column derivatisation was used with subsequent fluorescence detection of the amino acids. • HPLC plant: Waters Autosampler 717plus, Waters 600 Controller, Waters 600 Pump, Waters Fluorescence Detector 470 and EZChrom Elite Client/Server Measurement and evaluation software (version 2.8.3) • Stationary phase: NovaPak RP-18 column 4 μm (4×150 mm, VDS Optilab) pre-column: Phenomenex C18 (4×3.0 mm) • Temperature: 30° C.
• Detection: Fluorescence: λex: 338 nm; 425 nm. • Injection volume: 10 μl • Derivat. reagent: 50 mg o-PA dissolved in 1 ml of methanol • +9 ml 0.2 M of potassium borate buffer pH 9.4 • +53 μl 2-mercaptoethanol • Derivatisation: The auto sampler was programmed such that 10 μl of the sample were mixed with 14 μl of the derivatisation reagent and could react for 3 minutes at room, temperature prior to injection. Retention times: • L-citrulline 12.2±0.3 min • NMMA 15.8±0.4 min • Methylamine 23.4±0.1 min

hDDAH-1 [2] = molecular target: T1, hDDAH-1; assay: Determination of the IC50 value (plate-reader assay); details: NMMA 300 μM, 4 μg recombinant hDDAH-1, 30 min 37° C.; determined at least twice
Description: The samples for the plate-reader assay were incubated directly on a 96-well microtiter plate. An incubation mixture consisted of 150 μl of 50 mM potassium phosphate buffer pH 7.4 with NMMA in a final concentration of 300 μM. The inhibitor was added in five different concentrations and the reaction was started by adding 4 μg of recombinant hDDAH-1. In addition, two mixtures without added inhibitor were incubated. The plate was closed with a lid and incubated for 30 minutes on a plate incubator (shaker DTS-4, LTF-Labortechnik GmbH, Wasserburg, Germany) at 37° C. The reactions were stopped using 200 μl of the Colder reagent and the citrulline that had formed was derivatised (see derivatisation for plate-reader assay). The IC50 value was then calculated by means of SigmaPlot 8.0 (SPSS Chicago, USA). Derivatisation was carried out on particularly heat-stable 96-well microtiter plates. 200 μl of the Colder reagent was added to the samples (150 μl) and to prevent evaporation, the plate was closed with a heat-stable adhesive film (Nunc, Wiesbaden, Germany). Colour formation then took place in the drying oven at 95° C. for 15-20 minutes. Before photometric measurements were taken, there was a wait until the plate had reached room temperature and then the colour intensity at 540.5 nm (Carry 50 microplate reader, Varian, Darmstadt, Germany) was measured.

hDDAH-1 [3] = molecular target: T1, hDDAH-1; assay: Determination of the Ki value (plate-reader assay); details: five NMMA concentrations (50-1250 μM), recombinant hDDAH-1; determined at least twice
Description: The Ki value was determined as described for the IC50 value, with the difference that five different NMMA concentrations (50, 100, 300, 750 and 1250 μM) were used. The incubations were carried out such that each NMMA concentration was in each case incubated twice with each of the five inhibitor concentrations. On top of this, incubations using the different NMMA concentrations were carried out without added inhibitor.
For each inhibitor concentration, using SigmaPlot 8.0 (SPSS Inc., Chicago, USA) the respective apparent Km value and Vmax were determined. Via secondary plotting of the inhibitor concentrations versus Km/Vmax the Ki value was determined by extrapolation of the least-squares lines onto the abscissa.
Derivatisation was carried out on particularly heat-stable 96-well microtiter plates. 200 μl of the Colder reagent was added to the samples (150 μl) and to prevent evaporation, the plate was closed with a heat-stable adhesive film (Nunc, Wiesbaden, Germany). Colour formation then took place in the drying oven at 95° C. for 15-20 minutes. Before photometric measurements were taken, there was a wait until the plate had reached room temperature and then the colour intensity at 540.5 nm (Carry 50 microplate reader, Varian, Darmstadt, Germany) was measured. Measurement took place during 20 minutes since the reaction product is not stable (Knipp and Vasak 2000).

T1 sequence (O94760 whole entry): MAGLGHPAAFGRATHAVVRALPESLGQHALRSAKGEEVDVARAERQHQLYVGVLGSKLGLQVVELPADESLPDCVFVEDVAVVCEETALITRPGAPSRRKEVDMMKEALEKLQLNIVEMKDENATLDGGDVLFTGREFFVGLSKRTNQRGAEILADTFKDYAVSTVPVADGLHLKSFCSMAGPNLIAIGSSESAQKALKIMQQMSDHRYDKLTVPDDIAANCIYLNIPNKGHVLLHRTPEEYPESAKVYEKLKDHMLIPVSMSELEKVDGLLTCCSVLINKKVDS

Compound	inhibition at 1000 µM (hDDAH-1 [1]) [%]	IC50 (hDDAH-1 [2]) [µM]	Ki (hDDAH-1 [3]) [µM]
COCC/N=C(/N)NCCCCN [Substance 3, N-(4-aminobutyl)-N′-(2-methoxyethyl)guanidine bis(trifluoracetate)]	80 ± 5	70 ± 16	18 ± 6
C=CCC(=N)NCCCCN [Substance 5, N-(4′-aminobutyl)but-3-enamidine bis(trifluoracetate)]	40 ± 6		
COCCNC(=N)NCCC[C@H](N)C(=O)O [Substance L-257, N^ω-(2-methoxyethyl)-L-arginine, reference compound]	89 ± 2		
